Test results from US7781428B2 (Pfizer Inc., priority 2006, dated 2010).

Target: T1, mineralocorticoid receptor (MR) (Homo sapiens, UniProt P08235)
T1 construct: expressed in transfected cells; host or cells: Huh7 (human liver cells)
T1 sequence (P08235 726-964 limits assumed): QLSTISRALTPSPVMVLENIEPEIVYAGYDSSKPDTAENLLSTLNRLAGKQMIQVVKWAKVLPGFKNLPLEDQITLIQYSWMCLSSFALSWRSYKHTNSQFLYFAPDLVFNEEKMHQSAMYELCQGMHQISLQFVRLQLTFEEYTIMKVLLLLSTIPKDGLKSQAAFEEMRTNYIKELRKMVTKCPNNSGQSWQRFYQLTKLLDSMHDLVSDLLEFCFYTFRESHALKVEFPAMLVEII
Assay: Cell-based Gal4 response element-controlled luciferase reporter assay (MR antagonism)
Details: Huh7 human liver cells transfected with Gal4 DBD-MR LBD fusion and luciferase reporter; block of agonist-induced activation; overnight incubation
Text: Method 1: Cell-based Gal4 Response Element-controlled Luciferase Reporter Assay
An in vitro assay can be used to evaluate mineralocorticoid receptor (MR) antagonism by a test compound. […] An agonist of the receptor can bind to and activate the receptor LBD, which activate the expression of the Gal4 response element containing luciferase reporter gene. Antagonists can compete for binding to the receptor LBDs and decrease the transcription activity of the reporter gene. Measurement of luciferase activity allows quantitative determinations of the reporter transcription in the presence of either agonists or agonists and antagonists in combination. β-galactosidase activity, which is unaffected by ligand, is used to normalize the transfection efficiency in the cell population.
Huh7 cells were plated in RPMI1640+10% fetal bovine serum (Invitrogen Corporation, San Diego, Calif.), at 10,000 cells per well in 96-well tissue culture dishes for approximately 24 hours. Cells were then transfected using FuGENE™ 6 Transfection Reagent according to manufacturers' instructions (Roche Molecular Biochemicals, Indianapolis, Ind.). Approximately 20 hours after transfection, media were removed. Cells were washed once with PBS and treated (n=6/group) with agonist for each receptor (all chemicals from Sigma, St. Louis, Mo.), and with compounds. Agonist concentrations represent 70-80% of full activation of each receptor.
Compounds were dissolved in DMSO at 10 mM and diluted to final concentrations in phenol red-free media that contained 10% charcoal- and dextran-stripped serum (Life Technologies, Gathersburg, Md.). Following overnight incubation (18-20 hours) with compounds, the medium was removed and replaced with 100 μL per well of PBS and 100 μL of Steady-Glo™ lysis buffer with luciferase substrate (Promega Corporation, Madison, Wis.). After a 30-minute incubation to completely lyse the cells, 100 μL of the lysate was transferred to a black, Dynatech Microfluor assay plates (Dynex Corporation, Chantilly, Va.) to measure luciferase activity. The plate was sealed with TopSeal self-adhesive film, dark-adapted for 5 minutes, then counted in a TopCount Plate Reader (Packard Instrument Company, Meriden, Conn.) in single photon counting mode. The remaining lysate was used for determination of β-galactosidase activity. In a clear 96-well assay plate, 100 μL of cell lysate was added to 100 μL β-galactosidase assay buffer per well. The assay buffer consisted of 60 mM Na2HPO4, 40 mM NaH2PO4, 10 mM KCl, 1 mM MgSO4, 50 mM β-mercaptoethanol, and 2.5 mg/mL ONPG, the latter two reagents were added just prior to assay (all chemicals from Sigma). The reaction was allowed to proceed until a distinct yellow color developed. Reactions were stopped by the addition of 100 μL per well 1 M Na2CO3 and plates were read at 420 nm in Victor-2 (Perkin Elmer Life Sciences, Boston, Mass.). Values (relative luciferase activity) for each sample were expressed as a ratio of luciferase activity to OD420β-galactosidase activity measured in arbitrary units for each well. […] “b” is the slope, “c” is the IC50 or EC50. “x” is the concentration of the compound and “y” the activity at that concentration.

With `N#Cc1ccc(N2N=C3c4ccc(C(=O)O)cc4OC[C@@H]3[C@@H]2C2CCCC2)cc1` [Example 71, (3S,3aR)-2-(4-cyanophenyl)-3-cyclopentyl-2,3,3a,4-tetrahydrochromeno[4,3-c]pyrazole-7-carboxylic acid] as the compound, how does the IC50 read?
Its IC50 is 205 nM.

For `N#Cc1ccc(N2N=C3c4ccc(C(=O)NCCN5CCCC5)cc4CC[C@@H]3[C@@H]2c2ccc(F)cc2)cc1Cl` (racemic) [Example 111, (±)-(3RS,3aRS)-2-(3-chloro-4-cyanophenyl)-3-(4-fluorophenyl)-N-(2-(pyrrolidin-1-yl)ethyl)-3,3a,4,5-tetrahydro-2H-benzo[g] indazole-7-carboxamide], which IC50 is on record?
Its IC50 is 57 nM.

`Cc1nc(N2N=C3c4ccc(C(=O)O)cc4CCC3C2C2CCCC2)ccc1C#N` (racemic) [Example 24, 2-(5-cyano-6-methylpyridin-2-yl)-3-cyclopentyl-3,3a,4,5-tetrahydro-2H-benzo[g]indazole-7-carboxylic acid] was tested. Which IC50 did it give?
The IC50 was 8 nM.

`N#Cc1ccc(N2N=C3c4ccc(O)cc4CC[C@@H]3[C@@H]2c2ccc(F)cc2)cc1Cl` [Example 87, 2-chloro-4-((3R,3aR)-3-(4-fluorophenyl)-7-hydroxy-3,3a,4,5-tetrahydrobenzo[g]indazol-2-yl)benzonitrile] was tested. Which IC50 did it give?
Its IC50 is 36 nM.

For `N#Cc1ccc(N2N=C3c4ccc(O)cc4CCC3C2c2ccc(F)cc2)cc1` (racemic) [Example 89, (±)-4-((3RS,3aRS)-3-(4-fluorophenyl)-7-hydroxy-3,3a,4,5-tetrahydrobenzo[g]indazol-2-yl)benzonitrile], which IC50 is on record?
Its IC50 is 705 nM.

For `N#Cc1ccc(N2N=C3c4cc(C(=O)O)ccc4CCC3C2c2ccc(F)cc2)cc1Cl` (racemic) [Example 5, 2-(3-chloro-4-cyanophenyl)-3-(4-fluorophenyl)-3,3a,4,5-tetrahydro-2H-benzo[g]indazole-8-carboxylic acid], which IC50 is on record?
The IC50 was 3700 nM.

How did the IC50 turn out when `N#Cc1ccc(N2N=C3c4ccc(C(=O)O)cc4OC[C@H]3[C@H]2C2CCCC2)cc1` [Example 72, (3R,3aS)-2-(4-cyanophenyl)-3-cyclopentyl-2,3,3a,4-tetrahydrochromeno[4,3-c]pyrazole-7-carboxylic acid] was run?
The IC50 was 8100 nM.

For `Cc1ccc([C@@H]2[C@@H]3CCc4cc(C(=O)O)ccc4C3=NN2c2ccc(C#N)c(Cl)c2)o1` [Example 41, (3S,3aS)-2-(3-chloro-4-cyanophenyl)-3-(5-methyl-2-furyl)-3,3a,4,5-tetrahydro-2H-benzo[g]indazole-7-carboxylic acid], which IC50 is on record?
The IC50 was over 1000 nM.

`N#Cc1ccc(N2N=C3c4ccc(C(=O)O)cc4CCC3C2c2ccco2)cc1Cl` (racemic) [Example 43, 2-(3-chloro-4-cyanophenyl)-3-(2-furyl)-3,3a,4,5-tetrahydro-2H-benzo[g] indazole-7-carboxylic acid] was tested. Which IC50 did it give?
The IC50 was 21 nM.

How did the IC50 turn out when `COc1cc(N2N=C3c4ccc(C(=O)O)cc4CC[C@H]3[C@H]2C2CCCC2)ccc1C#N` [Example 27, (3R,3aS)-2-(4-cyano-3-methoxyphenyl)-3-cyclopentyl-3,3a,4,5-tetrahydro-2H-benzo[g]indazole-7-carboxylic acid] was run?
The IC50 was 305 nM.

With `N#Cc1ccc(N2N=C3c4ccc(C(=O)O)cc4CC[C@@H]3[C@@H]2C2CCCC2)cc1` [Example 19, (3S,3aR)-2-(4-cyanophenyl)-3-cyclopentyl-3,3a,4,5-tetrahydro-2H-benzo[g]indazole-7-carboxylic acid] as the compound, how does the IC50 read?
The IC50 was 37.6 nM.

With `N#Cc1ccc(N2N=C3c4ccc(O)cc4CCC3C2c2ccc(F)cc2)cc1C(F)(F)F` (racemic) [Example 83] as the compound, how does the IC50 read?
Its IC50 is 77 nM.

How did the IC50 turn out when `COc1cc(N2N=C3c4ccc(C(=O)O)cc4CC[C@@H]3[C@@H]2C2CCCC2)ccc1C#N` [Example 26, (3S,3aR)-2-(4-cyano-3-methoxyphenyl)-3-cyclopentyl-3,3a,4,5-tetrahydro-2H-benzo[g]indazole-7-carboxylic acid] was run?
The IC50 was 13 nM.

With `N#Cc1ccc(N2N=C3c4ccc(C(=O)NCCCC(=O)O)cc4CC[C@@H]3[C@@H]2c2ccc(F)cc2)cc1Cl` (racemic) [Example 106, (±)-4-((3RS,3aRS)-2-(3-chloro-4-cyanophenyl)-3-(4-fluorophenyl)-3,3a,4,5-tetrahydro-2H-benzo[g]indazole-7-carboxamido)butanoic acid] as the compound, how does the IC50 read?
The IC50 was 312 nM.

For `Cc1ccc([C@H]2[C@H]3CCc4cc(C(=O)NCCS(C)(=O)=O)ccc4C3=NN2c2ccc(C#N)c(Cl)c2)o1` [Example 117, (3R,3aR)-2-(3-chloro-4-cyanophenyl)-3-(5-methyl-2-furyl)-N-[2-(methylsulfonyl)ethyl]-3,3a,4,5-tetrahydro-2H-benzo[g]indazole-7-carboxamide], which IC50 is on record?
The IC50 was 3 nM.

For `CCN(CC)CCN(CCN(CC)CC)C(=O)c1ccc2c(c1)CC[C@H]1C2=NN(c2ccc(C#N)c(Cl)c2)[C@H]1c1ccc(F)cc1` (racemic) [Example 107, (±)-(3RS,3aRS)-2-(3-chloro-4-cyanophenyl)-N,N-bis(2-(diethylamino)ethyl)-3-(4-fluorophenyl)-3,3a,4,5-tetrahydro-2H-benzo[g]indazole-7-carboxamide bistrifluoroacetate], which IC50 is on record?
The IC50 was 523 nM.

How did the IC50 turn out when `CS(=O)(=O)CCNC(=O)c1ccc2c(c1)CC[C@H]1C2=NN(c2ccc(C#N)c(Cl)c2)[C@H]1C1CCCC1` [Example 114, (3S,3aR)-2-(3-chloro-4-cyanophenyl)-3-cyclopentyl-N-(2-(methylsulfonyl)ethyl)-3,3a,4,5-tetrahydro-2H-benzo[g]indazole-7-carboxamide] was run?
Its IC50 is 1 nM.

For `N#Cc1ccc(N2N=C3c4ccc(C(=O)NCCO)cc4CC[C@@H]3[C@@H]2C2CCCC2)cc1Cl` [Example 115, (3S,3aR)-2-(3-chloro-4-cyanophenyl)-3-cyclopentyl-N-(2-hydroxyethyl)-3,3a,4,5-tetrahydro-2H-benzo[g]indazole-7-carboxamide], which IC50 is on record?
The IC50 was 3 nM.

With `Cc1cc(N2N=C3c4ccc(C(=O)O)cc4OCC3C2C2CC2)ccc1C#N` (racemic) [Example 75, 2-(4-cyano-3-methylphenyl)-3-cyclopropyl-2,3,3a,4-tetrahydrochromeno[4,3-c]pyrazole-7-carboxylic acid] as the compound, how does the IC50 read?
The IC50 was 711 nM.

How did the IC50 turn out when `N#Cc1ccc(N2N=C3c4ccc(C(=O)NCCCCCC(=O)O)cc4CC[C@@H]3[C@@H]2c2ccc(F)cc2)cc1Cl` (racemic) [Example 103, (±)-6-((3RS,3aRS)-2-(3-chloro-4-cyanophenyl)-3-(4-fluorophenyl)-3,3a,4,5-tetrahydro-2H-benzo[g]indazole-7-carboxamido)hexanoic acid] was run?
Its IC50 is 113 nM.

With `CS(=O)(=O)CCNC(=O)c1ccc2c(c1)CCC1C2=NN(c2ccc(C#N)c(Cl)c2)C1c1ccc(F)cc1` (racemic) [Example 97, (±)-(3RS,3aRS)-2-(3-chloro-4-cyanophenyl)-3-(4-fluorophenyl)-N-(2-(methylsulfonyl)ethyl)-3,3a,4,5-tetrahydro-2H-benzo[g]indazole-7-carboxamide] as the compound, how does the IC50 read?
The IC50 was 12 nM.

With `N#Cc1ccc(N2N=C3c4ccc(O)cc4CC[C@H]3[C@H]2c2ccc(F)cc2)cc1Cl` [Example 88, 2-chloro-4-((3S,3aS)-3-(4-fluorophenyl)-7-hydroxy-3,3a,4,5-tetrahydrobenzo[g]indazol-2-yl)benzonitrile] as the compound, how does the IC50 read?
The IC50 was over 1000 nM.

With `Cc1ncc(C2C3CCc4cc(C(=O)O)ccc4C3=NN2c2ccc(C#N)c(Cl)c2)s1` (racemic) [Example 49, 2-(3-chloro-4-cyanophenyl)-3-(2-methyl-1,3-thiazol-5-yl)-3,3a,4,5-tetrahydro-2H-benzo[g]indazole-7-carboxylic acid] as the compound, how does the IC50 read?
The IC50 was 103 nM.

With `N#Cc1ccc(N2N=C3c4ccc(C(=O)O)cc4OCC3C2C2CCCC2)cc1Cl` (racemic) [Example 64, 2-(3-chloro-4-cyanophenyl)-3-cyclopentyl-2,3,3a,4-tetrahydrochromeno[4,3-c]pyrazole-7-carboxylic acid] as the compound, how does the IC50 read?
The IC50 was 65 nM.

For `CS(=O)(=O)CCNC(=O)c1ccc2c(c1)CC[C@H]1C2=NN(c2ccc(C#N)c(Cl)c2)[C@H]1C1CCOCC1` (racemic) [Example 100], which IC50 is on record?
Its IC50 is 21 nM.
